Our source for the EC50 values is US11590117B2, “Treatment of a hematologic malignancy with 2-(4-chlorophenyl)-n-((2-(2,6-dioxopiperidin-3-yl)-1-oxoisoindolin-5-yl)methyl)-2,2-difluoroacetamide” (priority 2016, dated 2023).

Each structure is given as a SMILES string. Where two headings read alike, the source gives them in different places.

One test relates to TF-1. Nature of the test: IncuCyte Kinetic Caspase-3/7 Apoptosis Assay. Format: cell-based. Conditions: Homo sapiens, read-out: Compound 1-induced Apoptosis EC50. From the text: (§1) Methods. Acute Myeloid Leukemia Cell Line Panel: Human AML cell lines, AML-193, F36-P, GDM-1, HL-60, HNT-34, Kasumi-1, Kasumi-3, KG-1, KG-1a, ML-2, MOLM-13, MUTZ-8, MV-4-11, NOMO-1, OCI-AML2, OCI-AML3, SIG-M5, TF-1, THP-1, and UT-7 were obtained from American Type Culture Collection (ATCC; Manassas, Va.) and Deutsche Sammlung von Mikroorganismen und Zellkulturen (DSMZ) (Germany) cell banks. The AML panel includes cell line(s) from each FAB classification (M0-M7) (Table 7).
(§2) Cell Culture Conditions: Cell lines were maintained in growth media containing 20% fetal bovine serum (FBS) (Hyclone Cat no. SH30910.03, Lot no. AZF188864; Corning REFno. 35-010-CV, Lot no. 35010124) supplemented with or without 10 ng/mL human recombinant granulocyte-macrophage colony stimulating factor (Sigma-Aldrich Cat no. SRP3050) (Table 8). Medium was purchased from ATCC (Cat no. 30-2001, 30-2002, 30-2003, 30-2005) and Gibco (REF no. 12561-056). Human recombinant granulocyte macrophage colony stimulating factor (GM-CSF) was expressed in Escherichia coli. The cell doubling times for each cell line were provided by ATCC and DSMZ. Cells were maintained in humidified incubators at 5% carbon dioxide (CO2). All cell lines were acclimated to Eagle's minimal essential medium (EMEM)+20% FBS with or without GM-CSF over 2 to 4 weeks prior to live cell imaging using IncuCyte Zoom (Essen Biosciences). The use of EMEM was necessary to eliminate background fluorescence caused by riboflavin in most media.
(§3) Incubation of Cell Cultures with Compound 1: Compound 1 was provided for studies by Celgene chemistry group at a stock concentration of 30 mM in 20 μL dimethyl sulfoxide (DMSO) frozen. Costar 96-well cell culture plates (Corning Cat no. 3595) were coated with 100 μL of 10 µg/mL fibronectin (Sigma-Aldrich Cat no. F1141) for 4 hours at 37° C. and immediately used or refrigerated overnight for later use. Cells (3000 to 6000 cells) were plated in growth medi in fibronectin-coated 96-well plates and incubated for a minimum of a few hours to overnight. Cells were incubated with a 12-point concentration response in triplicate with Compound 1 ([…]) including DMSO and Media controls. A 3-fold serial dilution of Compound 1 starting from a concentration of 200 μM in 0.6% DMSO (diluted in Media) was performed. For most sensitive cell lines, a 3-fold serial dilution of Compound 1 starting from a concentration of 20 μM in 0.6% DMSO (diluted in media) was performed. A volume of 5 μL or 10 μL for each dilution was added to 100 μL or 200 μL cells, respectively (0.3% DMSO final) and incubated for live cell imaging.
(§4) Live Cell Imaging on IncuCyte Zoom: Following incubation of cells with Compound 1, diluted Caspase 3/7 reagent (Essen Biosciences Cat no. 4440) is added to each well. The Caspase-3/7 reagent couples the activated caspase-3/7 recognition motif (DEVD) to NucView™488, a DNA intercalating dye. The cleavage of substrate by activated caspase-3/7 results in the release of the DNA dye and green fluorescent staining of nuclear DNA. This allows imaging of cells undergoing caspase-3/7 mediated apoptosis over time. Caspase-3/7 activation was quantified using the IncuCyte™ ZOOM basic analyzer. Red-labeled cell lines were also imaged over time using the IncuCyte™ ZOOM basic analyzer, for determination of both cell doubling time and Compound 1 effect on cell viability. Experiments were performed at least two times in each cell line.
(§5) Next, a 4 parameter log-logistic model was used to determine relative EC50 at each time point by the ‘drm’ function from the R ‘drc’ package (Ritz C, Streibig J C. Bioassay Analysis using R. J. Statist. Software 2005; 12(5):1-22). Goodness of fit was measured by R squared (coefficient of determination or the amount of variation explained by the model fit) of ≥80%, and EC50 parameter was assessed by having a ratio of standard error to the parameter of ≤40%, and the presence of at least one concentration point above and below the reported EC50. […]

The test system of a further test is MV-4-11. Nature of the test: IncuCyte Kinetic Caspase-3/7 Apoptosis Assay. Format: cell-based. Conditions: Homo sapiens, read-out: Compound 1-induced Apoptosis EC50.
Text: as §1, §2, §3, §4, §5

By EC50 is commonly meant the concentration giving half of the maximal effect. For `O=C1CCC(N2Cc3cc(CNC(=O)C(F)(F)c4ccc(Cl)cc4)ccc3C2=O)C(=O)N1` (centres unmarked) [Compound 1, 2-(4-chlorophenyl)-N-((2-(2,6-dioxopiperidin-3-yl)-1-oxoisoindolin-5-yl)methyl)-2,2-difluoroacetamide], the 50% effective concentration (EC50) amounted to 129 nM in the test on TF-1 (48 hr); 65 nM in the test with TF-1 (72 hr); 64 nM in the test on TF-1 (96 hr); 227 nM in the test with MV-4-11 (MV4-11, 12 hr); 167 nM in the test on MV-4-11 (MV4-11, 24 hr); 32 nM in the test with MV-4-11 (MV4-11, 48 hr). Moreover, the EC50 in the test on MV-4-11 (MV4-11, 72 hr) is 16 nM; in the test on MV-4-11 (MV4-11, 96 hr), 17 nM.
